Measured values as given in patent publication US20250114377A1, “TWO-PRONGED TREATMENT FOR NIEMANN PICK TYPE C DISEASE” (UNIVERSITY OF NOTRE DAME DU LAC, priority 2022, published 2025).
“Also recorded” adds a separate entry of the source.

What was measured:
[1] = test system: NPC1 mutant (null or I1061T) cells; assay: Rescue of lysosomal tubulation by 27-HC in NPC1 mutant cells (FIG. 5); type: cell-based; conditions: 27-HC in a cocktail that bypasses receptor-mediated endocytosis
Source text: FIG. 5. Impact of NPC1 and StARD9 Mutations on Rescue of Lysosomal Tubulation by 27-Hydroxycholesterol (27-HC). The ability of 27-HC to rescue lysosomal tubulation after depletion of NPC1 (shRNA-NPC1) or StARD9 (shRNA-STARD9) was compared to cells expressing the NPC1 (I1061T)-eGFP mutant (I1061T) or a eGFP-StARD9 construct expressing amino acids 1-4483 (STARD9-ΔSTART). ***—p<0.005; ns (not significant).
(§1) To test this idea, we treated either NPC1 mutant (null or I1061T) or StARD9 mutant (null or truncation mutant) cells with 27-HC in a cocktail that delivers it into the cytoplasm independent of receptor-mediated endocytosis. […] Next, we treated NPC1(−/−) mice with 27-HC by i.p. delivery.

lysosomal tubulation = assay: Rescue of lysosomal tubulation with purified oxysterols in LDL-depleted media (FIG. 4); type: cell-based
Procedure: FIG. 4. Rescue of Lysosomal Tubulation with Purified Oxysterols. Measurements of lysosomal tubulation comparing control complete media (Control) to media depleted of LDL (LDL−) and depleted media supplemented with 27-hydroxycholesterol (27-HC), 24-hydroxycholesterol (24-HC) or 25-hydroxycholesterol (25-HC).
Fixed and live-cell imaging was performed on COS-7 cells grown in Dulbecco's Modified Eagle's Medium (DMEM) supplemented with 10% fetal bovine serum, 1% L-glutamine, and penicillin/streptomycin (Sigma-Aldrich). Transfections were performed using either Lipofectamine (Life Technologies), X-treme Gene DNA Transfection reagent (Roche, Indianapolis, IN) or Nanofect (Allstem, Richmond, CA). J774A.1 mouse macrophages were provided and cultured in the same media. Cells were tested for contamination using PCR-based test kits (Sartorius, Inc.; Cat #SMB95-1001).
Microscopy experiments were performed on a Zeiss Axiovert 200M (Thornwood, NY) run by Metamorph software (Sunnyvale, CA). Fixed and live cell imaging data was collected using either a Photometrics Coolsnap HQ or Cascade 1k CCD camera (Tucson, AZ). Timelapse imaging of cells expressing NPC1-EGFP and mCherry-StARD9 utilized a Dual-view camera (Photometrics) adapter to allow simultaneous acquisition of green and red channels at each timepoint. Kymographs were generated in Metamorph using a 1p m slice from each frame.
as §1

[2] = test system: NPC1 (I1061T/I1061T) mice; assay: 27-HC treatment of NPC1 (I1061T/I1061T) mice by oral gavage; type: in vivo
Procedure: FIG. 11. Impact of 27-HC Treatment on NPC1 (I1061T/I1061T) Mice. Kaplan-Meier lifespan analysis of NPC1 (I1061T/I1061T) mice treated with either 0 mg/kg (dashed line) or 5 mg/kg (solid line) 27-HC three times per week by oral gavage.
FIG. 13. Impact of 27-HC Treatment on Lipid Accumulation in Livers of Male and Female Mice. Comparing livers of wild-type vs. NPC1 (I1061T/I1061T) mice, lipid accumulations (black arrows) are apparent in NPC1 mutant mice but not wild-type mice. This is true and both males and females.
as §1

NPC1(−/−) mice = assay: 27-HC treatment of NPC1(−/−) mice by intraperitoneal injection; type: in vivo; conditions: i.p.
Procedure: FIG. 7A-C. Behavioral Analysis of NPC1(−/−) Mice Treated with 27-HC. NPC1(−/−) treated with 0 mg/kg (●) or 10 mg/kg (▴) 27-HC once per week by intraperitoneal injection were tested using (A) Tremor Scores p=0.01), (B) Rotarod Analysis (p=0.0037) or (C) Coathanger Tests (p=0.0229).
FIG. 8. Impact of 27-HC Treatment on NPC1 (−/−) Mice. Immunohistochemical staining of cerebella stained for calbindin after treatment with either Omg/kg or 10 mg·kg 27-HC once per week by intraperitoneal injection. Brown staining indicates Purkinje cell survival in lobes of the cerebellum (I, V, X).
FIG. 9A-C. Impact of 27-HC Treatment on NPC1 (−/−) Mice. Quantification of Purkinje cells preservation at days (A) P42, (B) P63 or (C) P77. Lobes are binned as I-V, VI-VII, VIII, or IX-X. A Student's t-test was calculated on total Purkinje cell counts from each timepoint (p-values).
FIG. 10. Impact of 27-HC Treatment on NPC1 (−/−) Mice. Kaplan-Meier lifespan analysis of NPC1 (−/−) mice treated with either 0 mg/kg (dashed line) or 10 mg/kg (solid line) 27-HC.
as §1

[3] = in vivo
Procedure: Studies have tested treatment 1× per week and 3× per week. However, from pharmacokinetic studies, it is known that 27-HC levels are only retained for 1-2 days. We will increase to daily treatment by oral gavage and measure serum levels of 27-HC to confirm maintenance of therapeutic levels. […] We will increase to higher doses by adding higher levels of DMSO to allow treatment with 20 mg/kg and 40 mg/kg.
We anticipate an increased benefit from treatment on a daily basis because the pharmacokinetics inform us about how long 27-HC remains in the blood (-100 ng/ml for 12 hours). For reference, children treated with Miglustat are dosed 3× per day. Higher doses of 27-HC and alternative cocktails are expected to reveal which parameters are more important for success. […] When crossed with NPC1(−/−) mice, they observe a significant decrease in NPC disease symptoms and an extension of lifespan (personal communication). This provides independent validation of the benefits associated with treatment with 27-HC. Finally, we expect improved outcomes for mice treated from conception over waiting until weaning (P21). This is because there is such a long window of brain development and maturation from conception to P21, that any developmental aspect of NPC disease would be well underway before we begin treatment at weaning.

[4] = NPC1 (I1061T/I1061T) mice, oral gavage, vs vehicle alone

## C[C@@H](CO)CCC[C@@H](C)[C@H]1CC[C@H]2[C@@H]3CC=C4C[C@@H](O)CC[C@]4(C)[C@H]3CC[C@]12C [27-HC, 27-hydroxycholesterol]
[1]
  Rescue of lysosomal tubulation in NPC1 mutant cells: rescued lysosomal tubulation in NPC1 mutant; also recorded: corrects the lysosomal tubulation defects
Lysosomal tubulation
  Potency as signaling molecule for StARD9 among cholesterol and individual oxysterols: most potent candidate
[2]; NPC1 (I1061T/I1061T) mice, 5 mg/kg vs 0 mg/kg three times per week oral gavage, p=0.0108
  Lifespan (Kaplan-Meier): extended the lifespan of the mice; also recorded: Extension of lifespan was significant
[2]; NPC1 (I1061T/I1061T) mice, males and females
  Lipid accumulation in livers: successful in reducing these lipid accumulations
[2]; NPC1 (I1061T/I1061T) mice, oral gavage
  Sex difference of treatment benefit: worked better in males than females
[2]; [4]
  Onset of symptoms: delayed the onset of symptoms
  Severity of symptoms: reduced the severity of symptoms
[2]; female NPC1 (I1061T/I1061T) mice
  Dosage needed for reduction of liver lipid accumulations, females: 40 mg/kg
[2]; females compared to males
  Sufficiency of the highest dose used, livers: not sufficient in females compared to males
[2]; male NPC1 (I1061T/I1061T) mice
  Dosage needed for reduction of liver lipid accumulations, males: 10 mg/kg
NPC1(−/−) mice; 10 mg/kg vs 0 mg/kg, p=0.0214
  Lifespan (Kaplan-Meier): extended the lifespan of the mice; also recorded: Extension of lifespan was significant
NPC1(−/−) mice; vs vehicle alone
  Onset of symptoms: delayed the onset of symptoms
  Purkinje cell preservation: preserved Purkinje cells
  Severity of symptoms: reduced the severity of symptoms
[3]
  How long 27-HC remains in the blood: 12 h
  Time 27-HC levels are retained: 1 to 2 days
[3]; 12 hours
  27-HC level in the blood: -100 ng/mL
